Experimental data taken from patent US8871777B2, “Phenylpyrimidone compounds, the pharmaceutical compositions, preparation methods and uses thereof” (Topharman Shanghai Co., Ltd., priority 2008, dated 2014).

Key:
PDE6 in bovine retina = target: T1, PDE6 in bovine retina (Bos taurus, UniProt P11541+P23439); assay: PDE6 enzyme inhibition activity test (scintillation proximity); type: biochemical; settings: for IC50: PDE6 separated from bovine retina, read-out: PDE6 IC50; for PDE6 IC50/PDE5 IC50: selectivity, ratio of IC50 PDE6/IC50 PDE5
T1 construct: obtained by suitably treating various tissues and separating the enzyme with FPLC; from tissue; host or cells: bovine retina
T1 sequence (P11541 2-856 limits assumed): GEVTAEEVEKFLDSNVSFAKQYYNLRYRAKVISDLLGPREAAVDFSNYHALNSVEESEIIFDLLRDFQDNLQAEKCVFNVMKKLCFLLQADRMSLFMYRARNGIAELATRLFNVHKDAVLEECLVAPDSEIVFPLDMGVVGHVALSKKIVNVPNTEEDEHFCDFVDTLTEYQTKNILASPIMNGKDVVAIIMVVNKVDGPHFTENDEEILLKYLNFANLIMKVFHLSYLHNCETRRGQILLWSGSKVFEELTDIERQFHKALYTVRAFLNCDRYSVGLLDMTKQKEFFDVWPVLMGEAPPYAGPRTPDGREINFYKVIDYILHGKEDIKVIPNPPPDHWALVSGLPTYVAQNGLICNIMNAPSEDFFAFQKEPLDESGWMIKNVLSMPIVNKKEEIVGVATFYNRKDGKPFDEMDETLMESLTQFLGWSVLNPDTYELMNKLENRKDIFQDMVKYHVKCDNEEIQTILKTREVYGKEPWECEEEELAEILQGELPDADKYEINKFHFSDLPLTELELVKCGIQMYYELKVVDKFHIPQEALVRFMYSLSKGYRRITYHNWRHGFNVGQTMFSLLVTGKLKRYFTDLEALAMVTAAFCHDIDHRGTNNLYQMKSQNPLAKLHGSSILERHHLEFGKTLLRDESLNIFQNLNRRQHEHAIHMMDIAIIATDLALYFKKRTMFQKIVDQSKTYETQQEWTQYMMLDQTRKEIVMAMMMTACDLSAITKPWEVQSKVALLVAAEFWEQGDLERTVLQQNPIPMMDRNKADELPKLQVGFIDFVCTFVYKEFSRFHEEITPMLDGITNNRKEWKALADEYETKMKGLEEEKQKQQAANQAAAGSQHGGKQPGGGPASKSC
T1 sequence (P23439 2-850 limits assumed): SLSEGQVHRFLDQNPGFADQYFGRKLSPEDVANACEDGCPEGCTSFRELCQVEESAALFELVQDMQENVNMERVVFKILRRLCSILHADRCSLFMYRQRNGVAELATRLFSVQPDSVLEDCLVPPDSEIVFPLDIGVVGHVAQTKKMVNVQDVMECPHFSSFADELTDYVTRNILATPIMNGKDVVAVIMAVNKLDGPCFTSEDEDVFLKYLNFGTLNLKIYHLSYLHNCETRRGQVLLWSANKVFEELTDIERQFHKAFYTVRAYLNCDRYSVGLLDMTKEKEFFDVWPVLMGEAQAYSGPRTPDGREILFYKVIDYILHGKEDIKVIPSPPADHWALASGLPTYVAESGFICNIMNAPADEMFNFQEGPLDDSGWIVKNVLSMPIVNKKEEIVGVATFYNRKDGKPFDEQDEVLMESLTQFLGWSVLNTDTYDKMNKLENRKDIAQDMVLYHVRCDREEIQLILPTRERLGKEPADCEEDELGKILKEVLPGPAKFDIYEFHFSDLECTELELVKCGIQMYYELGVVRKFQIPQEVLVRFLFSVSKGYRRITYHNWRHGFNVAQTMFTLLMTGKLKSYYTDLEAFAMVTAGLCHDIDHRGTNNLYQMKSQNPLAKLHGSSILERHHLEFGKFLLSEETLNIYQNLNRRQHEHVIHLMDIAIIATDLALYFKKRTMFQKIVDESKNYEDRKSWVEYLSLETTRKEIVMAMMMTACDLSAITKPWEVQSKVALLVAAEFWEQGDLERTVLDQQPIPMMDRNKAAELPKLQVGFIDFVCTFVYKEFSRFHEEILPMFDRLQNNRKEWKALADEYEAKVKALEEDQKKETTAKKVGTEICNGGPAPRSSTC
Procedure: (§1) More specifically, PDE5 and PDE3 were obtained from human blood platelet, and PDE6 was separated from bovine retina. Upon enzyme was separated out, the enzyme inhibition activity test would be carried out immediately. The said enzyme inhibition activity test was performed by directly detecting the scintillation proximity of AMP/GMP using TRKQ7100 and TRKQ7090 kits, which was generally as follows. In the presence of different concentrations of inhibitor and a small amount of substrate, 10 μl of buffer (50 mM Tris/HCl PH 7.5, 8.3 mM MgCl2, 1.7 mM EGTA) was added, and then water was added to a final volume of 100 μl. The reaction was initiated with a fixed amount of enzyme, incubated at 30° C. for 30 min, and then quenched with 50 μl of yttrium silicate beads comprising zinc sulphate. After shaken for 20 min, the reaction mixture was put in dark and settled for 30 min, and then readed on a BECKMAN LS6500 MULTI-PURPOSE SCINTILLATION COUNTER.

[1] = target: T2, human blood platelet PDE5 (Homo sapiens, UniProt O76074); assay: PDE5 enzyme inhibition activity test (scintillation proximity); type: biochemical
T2 construct: obtained by suitably treating various tissues and separating the enzyme with FPLC; from tissue; host or cells: human blood platelets
Procedure: as §1

Compound | IC50 (PDE6 in bovine retina) [nM] | PDE6 IC50/PDE5 IC50 (PDE6 in bovine retina) | IC50 ([1]; PDE5 table) [nM] | IC50 ([1]; as repeated in the PDE6 table) [nM]
CCCOc1ccc(C(=O)CN2CCOCC2)cc1-c1nc(CC)c(CC)c(=O)[nH]1 [Example 76, 5,6-diethyl-2-(5-(2-morpholinylacetyl)-2-n-propoxyphenyl)pyrimid-4(3H)-one] | 25.2 | 12.7 | 1.99 | 1.99
CCCOc1ccc(C(=O)NC2CCC(C(=O)OC)NC2)cc1-c1nc(CC)c(CC)c(=O)[nH]1 (stereo not drawn) [Example 174, methyl 5-(3-(4,5-diethyl-1,6-dihydro-6-oxopyrimidin-2-yl)-4-n-propoxybenzamido)piperidine-2-formate] | 13.7 | 30.3 | 0.45 | 0.45
CCCOc1ccc(NC(C)=O)cc1-c1nc(C(C)C)c(Br)c(=O)[nH]1 [Example 52, N-(3-(1,6-dihydro-4-isopropyl-5-bromo-6-oxopyrimidin-2-yl)-4-propoxyphenyl)acetamide] | 52.6 | 36.0 | 1.46 | 1.46
CCCOc1ccc(NC(=O)NCC)cc1-c1nc(CC)c(CC)c(=O)[nH]1 [Example 68, 1-(3-(4,5-Diethyl-1,6-dihydro-6-oxopyrimidin-2-yl)-4-n-propoxyphenyl)-3-ethylurea] | 16.4 | 31.0 | 0.53 | 0.53
CCCOc1ccc(NC(=O)C2CCCCC2)cc1-c1nc(CC)c(CC)c(=O)[nH]1 [Example 55, N-(3-(1,6-dihydro-4,5-diethyl-6-oxopyrimidin-2-yl)-4-propoxyphenyl)cyclohexamide] | 20.1 | 21.8 | 0.92 | 0.93
CCCOc1ccc(NC(=O)C(N)=O)cc1-c1nc(CC)c(CC)c(=O)[nH]1 [Example 114, N^1-(3-(4,5-diethyl-1,6-dihydro-6-oxopyrimidin-2-yl)-4-n-propoxyphenyl)oxalamide] | 18.7 | 10.53 | 0.83 | 0.83
CCCOc1ccc(S(=O)(=O)N2CCCC2C(=O)O)cc1-c1nc(CC)c(CC)c(=O)[nH]1 (stereo not drawn) [Example 32] | 40.6 | 20.1 | 2.02 | 2.02
CCCOc1ccc(C(=O)N2CCCC2C(N)=O)cc1-c1nc(CC)c(CC)c(=O)[nH]1 (stereo not drawn) [Example 61] | 29.1 | 15.1 | 1.93 | 1.93
CCCOc1ccc(C(=O)NC(C)C(=O)O)cc1-c1nc(CC)c(CC)c(=O)[nH]1 (stereo not drawn) [Example 145, 2-(3-(4,5-diethyl-1,6-dihydro-6-oxopyrimidin-2-yl)-4-n-propoxybenzamido)propionic acid] | 24.2 | 51.5 | 0.47 | 0.47
CCCOc1ccc(C(=O)N2CCN(CCO)CC2)cc1-c1nc(CC)c(CC)c(=O)[nH]1 [Example 164] | 31.8 | 68.7 | 0.46 | 0.46
CCCOc1ccc(C(=O)N2CCN(CCOCCO)CC2)cc1-c1nc(CC)c(CC)c(=O)[nH]1 [Example 163] | 48.6 | 6.1 | 7.92 | 7.92
CCCOc1ccc(C(=O)N2CCOCC2)cc1-c1nc(C(C)C)c(Br)c(=O)[nH]1 [Example 63, (Morpholin-1-yl)(3-(4-isopropyl-5-bromo-1,6-dihydro-6-oxopyrimidin-2-yl)-4-n-propoxy)benzophenone] | 33.4 | 26.9 | 1.24 | 1.24
CCCOc1ccc(C(=O)N2CCN(C)CC2)cc1-c1nc(CC)c(CC)c(=O)[nH]1 [Example 205] | 17.2 | 8.9 | 1.93 | 1.93
CCCOc1ccc(NC(=O)C(F)(F)F)cc1-c1nc(CC)c(CC)c(=O)[nH]1 [Example 98, N-(3-(4,5-diethyl-1,6-dihydro-6-oxopyrimidin-2-yl)-4-n-propoxyphenyl)-2,2,2-trifluoroacetamide] | 10.4 | 3.77 | 2.77 | 2.77
CCCOc1ccc(NS(C)(=O)=O)cc1-c1nc(CC)c(CC)c(=O)[nH]1 [Example 51, 5,6-Diethyl-2-(2-n-propoxy-5-mesylamidophenyl)pyrimid-4(3H)-one] | 34.8 | 28.3 | 1.23 | 1.23

Now from value to compound:

IC50 (PDE6 in bovine retina) [nM] | PDE6 IC50/PDE5 IC50 (PDE6 in bovine retina) | IC50 ([1]; PDE5 table) [nM] | IC50 ([1]; as repeated in the PDE6 table) [nM] | Compound
5.73 | 6.99 | 0.54 | 0.54 | CCCOc1ccc(NC(=O)C2CCCN2C(C)=O)cc1-c1nc(CC)c(CC)c(=O)[nH]1 (stereo not drawn) [Example 108, 1-acetyl-N-(3-(4,5-diethyl-1,6-dihydro-6-oxopyrimidin-2-yl)-4-n-propoxyphenyl)pyrrolidinyl-2-formamide]
7.82 | 12.8 | 0.61 | 0.61 | CCCOc1ccc(C(=O)N2CCCC2C(=O)OC)cc1-c1nc(CC)c(CC)c(=O)[nH]1 (stereo not drawn) [Example 139]
2.78 | 5.3 | 0.52 | 0.52 | CCCOc1ccc(C(=O)NC(Cc2ccccc2)C(=O)OC)cc1-c1nc(CC)c(CC)c(=O)[nH]1 (stereo not drawn) [Example 150, methyl 2-(3-(4,5-diethyl-1,6-dihydro-6-oxopyrimidin-2-yl)-4-n-propoxybenzamido)-3-phenylpropionate]
6.64 | 7.2 | 0.93 | 0.93 | CCCOc1ccc(C(=O)NC(CC(N)=O)C(=O)O)cc1-c1nc(CC)c(CC)c(=O)[nH]1 (stereo not drawn) [Example 146, 2-(3-(4,5-diethyl-1,6-dihydro-6-oxopyrimidin-2-yl)-4-n-propoxybenzamido)-3-aminoformylpropionic acid]
5.42 | 11.4 | 0.47 | 0.47 | CCCOc1ccc(C(=O)NC(Cc2ccccc2)C(=O)O)cc1-c1nc(CC)c(CC)c(=O)[nH]1 (stereo not drawn) [Example 138, 2-(3-(4,5-diethyl-1,6-dihydro-6-oxopyrimidin-2-yl)-4-n-propoxybenzamido)-3-phenylpropionic acid]
10.4 | 91.3 | 0.11 | 0.11 | CCCOc1ccc(C(=O)NCCCS(=O)(=O)O)cc1-c1nc(CC)c(CC)c(=O)[nH]1 [Example 169, 3-(3-(4,5-diethyl-1,6-dihydro-6-oxopyrimidin-2-yl)-4-n-propoxybenzamido)propyl-1-sulfonic acid]
